In patent publication US9023354B2, “Combination therapy with MDM2 and EFGR inhibitors” (priority 2010, dated 2015):
Where two headings read alike, the source gives them in different places.

Columns and labels:
A431 cells [1] = experiment: A431 cell proliferation assay (MTT), alone and in combination with Tarceva; type: cell-based; conditions: for synergistic effects with Tarceva in A431 cell proliferation (in words) / A431 Cell Proliferation CI Value: combination with Tarceva; for A431 Cell Proliferation CI Value: CI <0.8 indicates synergy
Method: This example describes an assay that measures the ability of compounds to inhibit the proliferation of cultured cells. This assay can also be used to assess whether combining two or more compounds produces additive, synergistic, or antagonistic effects on cell growth.
On day 1, the cells were seeded at 10^3 cells per well in 100 μl of complete media under standard conditions.
On day 2, the cells were washed and 100 μl serum free media was added. The cells were then incubated for at least 2 hours before the addition of compound(s). 20 μl of compound(s) was added to the respective wells and incubated at 37° C., 5% CO2 for 72 hrs.
On day 5, 50 μl of the MTT dye solution was added to each well. The plates were incubated at 37° C., 5% CO2 for 1 hr. The media was then aspirated and the cells were resuspended in […] of DMSO. The plates were allowed to incubate for 5 min at room temperature with gentle shaking.
The absorbance in each well was determined at 560 nm using a Polarstar plate reader.
The A431 cell line over-expresses the EGF receptor, and was utilized to assess the ability of AD4 compounds to inhibit EGF-mediated cell proliferation.

[2] = molecular target: p53/MDM2 binding (full length MDM2) (Homo sapiens (Human), UniProt Q00987); experiment: AlphaScreen p53/MDM2 binding with full length GST-MDM2; conditions: FIG. 1, read-out: inhibition of p53/MDM2 binding EC50
[3] = test system: p53-induced reporter gene activity; experiment: p53 reporter gene assay in HEK293 cells; type: cell-based; conditions: 10 μM
Method: This example describes an assay that measures the ability of compounds to stimulate p53-induced reporter gene activity. In order for p53 activity to be observed, the interaction of p53 with MDM2 must be inhibited. Methods are according to Examples 1-5 unless otherwise specified.
HEK293 cells were transiently transfected with the inducible p53-responsive firefly luciferase reporter and constitutively-expressing Renilla construct. After 16 hrs of transfection at 37° C., 5% CO2, the transfection media was removed and 200 μl/well of assay media was added. The cells were then incubated for 8 hrs at 37° C., 5% CO2.
[…] of compound(s) was added to the cells and incubated for 16 hrs at 37° C. and 5% CO2. The cells were carefully washed with 200 μl of PBS. 20 μl_of lysis buffer was then added to each well and incubated at room temperature for 15 minutes with shaking.
The lysis buffer supernatant was transferred to a white/opaque CoStar 96-well plate and 100 μl of firefly luceriferase assay substrate was added. The luminescence in each well was determined using a Polarstar plate reader.
100 μl of Stop and Glow reagent was added to each well, mixed, and the luminescence generated by the Renilla luciferase was determined using a Polarstar plate reader. The Renilla signal was used to normalize the transfection efficiency and cell viability.

p53/MDM2 binding = p53/MDM2 binding (Homo sapiens (Human), UniProt Q00987); experiment: AlphaScreen measurement of p53/MDM2 interaction (truncated GST-MDM2 aa 1-150)
Method: The following example describes an assay that measured the ability of compounds to inhibit the binding of p53 to MDM2 using the AlphaScreen assay technology (PerkinElmer). […] Recombinant, truncated, human, N-terminal GST-MDM2 (aa 1-150) was obtained from GeneScript. Wild-type, full length human N-terminal 6-his p53 was purchased from SignalChem.
Resulting in a final reaction volume of 24 μl PBS, 0.1% Tween-20, and 10% glycerol, 30 ng of MDM2 was added, followed by the addition of 10 of compound diluted in 100% DMSO that provided a final DMSO concentration of 4%. 30 ng of p53 was then added, mixed, and incubated at room temperature for 1 hour. Glutathione donor beads and Nickel acceptor beads (0.5 μg each; PerkinElmer) were added under subdued lighting conditions to a final reaction volume of 30 μl/well in a 96 well, ½ volume Proxima plate. The reaction was incubated at room temperature with shaking for 18 hrs in the dark. Analysis was then performed on a PerkinElmer EnSpire plate reader to determine the ability of compounds to inhibit the binding of p53 to MDM2.

A431 cells [4] = experiment: Caspase 3/7 activity, measurement of apoptosis; type: cell-based; conditions: 10 μM compared to 10 μM Tarceva
[5] = Stability toward liver microsome incubation; type: in vitro ADME
[6] = test system: apoptosis-related proteins in A549 cells; experiment: Proteome profile of apoptosis-related proteins; type: cell-based, human; conditions: 5 μM
Source text: This example describes an assay that measured the relative expression levels of 35 apoptosis-related proteins in a single sample of whole cell extract. Methods are according to Examples 1-2 unless otherwise specified.
The protocol and reagents were purchased from R&D systems (Human apoptosis array kit; cat. #ARY009). The kit consisted of an antibody array spotted on nitrocellulose membranes with each specific antibody printed in duplicate. The detection antibodies were biotinylated so they could be used with a streptavidin-HRP conjugate designed for chemiluminescent imaging. The protocol was modified to utilize the LiCor infrared imaging technology by substituting an infrared 680 nm-tagged streptavidin.
The following day, two μl of compound dilutions in 100% DMSO were added to the appropriate wells resulting in a final concentration of 5 μM. The plates were then incubated for 6 hours at 37° C., 5% CO2, and 85% relative humidity. Following incubation, the cells were washed with 2 ml of PBS, then lysed with 500 μl/well of Lysis buffer, supplemented with a 1/200 dilution of mammalian protease inhibitor cocktail (Sigma Aldrich). The plates were shaken for 30 min at room temperature, spun @ 14,000×g for 5 minutes. 250 μl of the supernatant was removed and added to 1.25 ml of Assay buffer 1. The supernatant and Assay buffer 1 were incubated with membranes overnight at room temperature with shaking.
The following day, the membranes were washed 3 times for 10 min each, with 1× wash buffer in individual 50 ml Falcon tubes at room temperature with rotation. The membranes were incubated with a 1/100 dilution of biotinylated detection antibodies for 3 hours at room temperature with shaking.
The membranes were washed, then incubated with a 1/1000 dilution of IR 680 nm-labeled streptavidin (LiCor) for 60 minutes with shaking in the dark. The membranes were again washed. Excess buffer was blotted from membranes, placed between two pieces of transparent plastic and imaged on the LiCor infrared imager. The LiCor Odyssey software is used to quantitate the pixel intensity of each spot in the array.
First, several compounds were evaluated in a proteome profiling array system containing antibodies to 35 apoptosis-related proteins. In this assay (see Example 3), the relative expression levels of these proteins in cell extracts are measured from treated and non-treated A549 cells.

A549 cells = experiment: DNA fragmentation (Cell Death Detection ELISA), measurement of apoptosis; conditions: Homo sapiens
Method: The plates were allowed to incubate overnight @ 37° C., 5% CO2. On day 2, the media was removed from the plates and 160 μl media containing 5% FBS was added. 40 μl of media-containing test compound in 100% DMSO (prepared at 5× the dosing concentration) was added to the existing media resulting in a final DMSO concentration of 0.5%. Cells were incubated in the presence of a compound for 24 hrs @ 37° C., 5% CO2.
After 24 hrs, the abovementioned plates were centrifuged at 200×g for 10 min. The media was removed by gently inverting the plate and disposing of the media onto a paper towel. The plates were tapped gently to remove excess media. 200 μl lysis buffer was added to each well, and mixed by shaking at 300 rpm. The plates were incubated at room temperature for 30 min. The plates were centrifuged at 200×g for 10 min and 20 μl of lysis supernatant was removed for use in ELISA analysis to detect cell death.
20 μl of the cell lysis supernatant was placed into streptavidin-coated plates with 20 μl positive control and 20 μl incubation buffer negative control. Add 80 μl Immunoreagent (for DNA fragment detection) to each well. The wells were covered with foil adhesive and shaken at 300 rpm for 2 h at room temperature. The supernatant solution was removed and the wells were washed 3 times with 300 μl incubation buffer. 100 μl of ABTS detection substrate was added to each well. The wells were incubated on a plate shaker at 250 rpm for approximately 10-20 min. 100 μl ABTS of stop buffer was then added. […] The absorbance measures the colored product spectrophotometrically, correlating with apoptosis.
The percent increase in DNA fragmentation produced by compounds at a concentration of 1 and 10 μM were compared to background, and to the response produced by 500 nM staurosporin.

[7] = Homo sapiens, A-431, A431 cells, further studies, Example 9, Table 7A, read-out: A431 Cell Proliferation (IC50 Value)
[8] = Homo sapiens, A-431, A431 cells, preliminary assessment, Example 8, Table 6A, read-out: A431 Cell Proliferation (IC50)
[9] = Table 7C, read-out: p53/MDM2 IC50 Value
[10] = Table 9, read-out: Inhibition of p53/MDM2 Binding IC50 Value
[11] = A431 cells, further studies, Example 9, Table 7A, read-out: A431 Cell Proliferation (IC50 Value)
[12] = A431 cells, preliminary assessment, Example 8, Table 6A, read-out: A431 Cell Proliferation (IC50)
[13] = A549, read-out: % Inc. Relative to Staurosporin (500 nM), DNA fragmentation
[14] = A549, read-out: % Inc. over Background, DNA fragmentation

Sequence of p53/MDM2 binding (Q00987 1-150): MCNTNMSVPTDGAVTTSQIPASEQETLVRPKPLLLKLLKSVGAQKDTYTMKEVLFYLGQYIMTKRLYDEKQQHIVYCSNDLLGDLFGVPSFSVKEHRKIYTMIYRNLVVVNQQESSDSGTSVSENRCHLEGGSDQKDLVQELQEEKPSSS
Sequence of p53/MDM2 binding (full length MDM2) (Q00987 whole entry): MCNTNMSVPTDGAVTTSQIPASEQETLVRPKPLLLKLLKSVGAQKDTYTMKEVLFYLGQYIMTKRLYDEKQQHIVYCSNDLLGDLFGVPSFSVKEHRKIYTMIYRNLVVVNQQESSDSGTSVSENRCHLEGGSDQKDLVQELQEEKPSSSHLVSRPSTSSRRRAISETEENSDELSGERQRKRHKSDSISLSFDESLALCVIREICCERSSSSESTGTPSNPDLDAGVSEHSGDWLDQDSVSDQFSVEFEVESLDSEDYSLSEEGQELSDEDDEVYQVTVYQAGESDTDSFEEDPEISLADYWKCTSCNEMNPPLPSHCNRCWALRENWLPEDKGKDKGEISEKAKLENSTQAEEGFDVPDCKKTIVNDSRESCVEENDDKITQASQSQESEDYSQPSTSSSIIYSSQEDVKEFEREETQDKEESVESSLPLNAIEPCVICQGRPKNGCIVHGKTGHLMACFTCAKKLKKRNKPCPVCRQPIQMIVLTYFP

SMILES	IC50 (A431 cells [1]; [7]) [µM]	A431 Cell Proliferation CI Value (A431 cells [1]; Example 8, Table 6B)	A431 Cell Proliferation CI Value (A431 cells [1]; Example 9, Table 7B)	IC50 (p53/MDM2 binding; [9]) [µM]	IC50 (p53/MDM2 binding; [10]) [µM]	Caspase 3/7 activity % Increase Relative to Tarceva (A431 cells [4]) [%]	IC50 (A431 cells [1]; [11]) [µM]	IC50 (A431 cells [1]; [12]) [µM]	stability (toward liver microsome incubation) [5]	further results
COc1ccc(C(Nc2cc(C)ccn2)c2ccc3cccnc3c2O)cc1O (stereo not drawn) [AD4-1505]	3.7	0.45	0.29	3.6	4.2	45	–	–	–	IC50 (A431 cells [1]; [8]): 3.7 µM; synergistic effects with Tarceva in A431 cell proliferation (in words) (A431 cells [1]): produced the greatest effects; EC50 [2]: 0.27 µM; stimulation of p53 reporter gene activity [3]: 42.5 fold
Cc1ccc(C)c(C(Nc2cccnc2)c2cc(Cl)c3cccnc3c2O)c1 (stereo not drawn) [AD4-10944]	–	–	–	–	–	–	1.8	1.8	–	stimulation of p53 reporter gene activity [3]: 7.5 fold
Cc1cc(Cl)cnc1NC(c1ccc(C(F)(F)F)cc1F)c1ccc2cccnc2c1O (stereo not drawn) [AD4-13042]	2.2	–	0.81	–	–	–	–	–	increased stability	–
Cc1ccc2c(C)nc(Nc3nc(-c4ccccc4C)cc(=O)[nH]3)nc2c1 [AD4-11511]	–	0.89	0.89	4.3	–	–	1	1	–	–
Oc1c(C(Nc2ccccn2)c2ccccc2Cl)ccc2cccnc12 (stereo not drawn) [AD4-10482]	–	0.54	0.89	18	18	21	3.6	3.6	–	–
Oc1c(C(Nc2ncc(C(F)(F)F)cc2F)c2ccc(Cl)cc2Cl)ccc2cccnc12 (stereo not drawn) [AD4-13165]	–	–	–	–	–	–	–	–	increased stability	phosphorylated forms of p53 [6]: increased all three phosphorylated forms of p53; activation at 1 µM (A549 cells; [13]): 24%; activation at 10 µM (A549 cells; [13]): 74%; activation at 1 µM (A549 cells; [14]): 172%; activation at 10 µM (A549 cells; [14]): 582%
Cc1nc(NC(c2ccc(Cl)cc2Cl)c2ccc3cccnc3c2O)c(Cl)cc1Cl (stereo not drawn) [AD4-13206]	–	–	–	–	–	–	–	–	increased stability	–
Cc1ccnc(NC(c2ccc3cccnc3c2O)c2sccc2C)c1 (stereo not drawn) [AD4-10963]	3.4	0.43	0.63	2	2	38	–	–	–	IC50 (A431 cells [1]; [8]): 3.4 µM; synergistic effects with Tarceva in A431 cell proliferation (in words) (A431 cells [1]): produced the greatest effects; EC50 [2]: 0.1 µM
Oc1c(C(Nc2cccnc2)c2ccc(C(F)(F)F)cc2)ccc2cccnc12 (stereo not drawn) [AD4-10942]	–	0.60	0.57	18	18	72	3.2	3.2	–	–
